# Data as given in US5055594A, “Fluorogenic trypotophanase substrates” (Becton, Dickinson and Company, priority 1990, dated 1991).
# Legend:
# tryptophanase = assay: Reaction of serine-AMC-carbamate with tryptophanase (fluorescence increase); format: biochemical; conditions: 1.19×10^-6 M substrate, pH 8.2, 100 μL of 5.0 mq/mL tryptophanase; excitation 365 nm
# Description: To a 1.19×10^-6 M solution of serine-AMC-carbamate dissolved in 100 mM potassium phosphate buffer, pH 8.2 was added 100 μL of a 5.0 mq/mL solution of tryptophanase. Fluorescence increase was measured at 440 nm, with excitation at 365 nm. Starting fluorescence of the serine-AMC-carbamate solution was 26 relative units. After addition of the enzyme, fluorescence at 440 nM increased at a rate of 97 units/minute. […] Fluorescence increase in the absence of enzyme was negligible.
# Citrobacter diversus = assay: Determination of the indole reaction of microorganisms (substrate on cellulose disks, AMC release); format: cell-based; conditions: for FLUORESCENCE INCREASE (ng AMC/min): 3×10^8 cfu/ml, phosphate buffer pH 8.4 with toluene, ex 365 nm, em 440 nm
# Description: (§1) Aliquots of 20 microliters of a 0.5% solution of the substrate of Example I dissolved in dimethylsulfoxide were added to cellulose disks (catalog no. 740-E, Schleicher and Schuell, Inc. Keene, N.H.). The DMSO was removed by vacuum dessication. The dried disks were placed in the wells of a black polystyrene microwell tray. Four of the disks were each inoculated with 25 microliters of a suspension containing 3×10^8 colony forming units per ml of the known indole positive microorganisms Escherichia coli and Citrobacter diversus and the known indole negative microorganisms Klebsiella pneumoniae and Citrobacter freundii. The suspensions were made in phosphate buffer, pH 8.4, containing toluene at a concentration of 2 drops per 5 ml of buffer to permeabilize the bacteria. Four disks were inoculated with buffer alone to serve as controls. The disks were excited at 365 nm using a xenon lamp and fluorescence was measured at 1 minute intervals for 10 minutes at a wavelength of 440 nm using a Fluoroskan II (Flow Laboratories, McLean, Va. 22102) reader. Results from the four tubes for each organism were averaged and are expressed in the Table as nanograms of free AMC released per minute.
# Citrobacter freundii = assay: as above; format: cell-based; conditions: for FLUORESCENCE INCREASE (ng AMC/min): 3×10^8 cfu/ml, phosphate buffer pH 8.4 with toluene, ex 365 nm, em 440 nm
# Description: as §1
# Escherichia coli = assay: as above; format: cell-based; conditions: for FLUORESCENCE INCREASE (ng AMC/min): 3×10^8 cfu/ml, phosphate buffer pH 8.4 with toluene, ex 365 nm, em 440 nm
# Description: as §1
# Klebsiella pneumoniae = assay: as above; format: cell-based
# Description: as §1
compound,measurement,setting,value
Cc1cc(=O)oc2cc(NC(=O)OC[C@H](N)C(=O)O)ccc12 [serine-AMC-carbamate],Rate of fluorescence increase at 440 nM after addition of the enzyme,tryptophanase,97 units/minute
same,Fluorescence increase compared with the control,"Citrobacter diversus; C. diversus (indole positive), versus buffer control",much larger fluorescence increases
same,FLUORESCENCE INCREASE (ng AMC/min),Citrobacter diversus; C. diversus strain 404,5.35 ng AMC/min
same,FLUORESCENCE INCREASE (ng AMC/min),Citrobacter diversus; C. diversus strain 2075,4.4 ng AMC/min
same,Fluorescence increase compared with the control,"Citrobacter freundii; C. freundii (indole negative), versus buffer control",about the same fluorescence increase as the control
same,FLUORESCENCE INCREASE (ng AMC/min),Citrobacter freundii; C. freundii strain 2027,0.8 ng AMC/min
same,FLUORESCENCE INCREASE (ng AMC/min),Citrobacter freundii; C. freundii strain 2058,0.45 ng AMC/min
same,Fluorescence increase compared with the control,"Escherichia coli; E. coli (indole positive), versus buffer control",much larger fluorescence increases
same,FLUORESCENCE INCREASE (ng AMC/min),Escherichia coli; E. coli strain 1W9901N1,1.53 ng AMC/min
same,FLUORESCENCE INCREASE (ng AMC/min),Escherichia coli; E. coli strain 2W0803N1,1.85 ng AMC/min
same,FLUORESCENCE INCREASE (ng AMC/min),Escherichia coli; E. coli strain 4H8162N1,1.6 ng AMC/min
same,FLUORESCENCE INCREASE (ng AMC/min),Escherichia coli; E. coli strain 7W0563N1,1.7 ng AMC/min
same,Fluorescence increase compared with the control,"Klebsiella pneumoniae; K. pneumoniae (indole negative), versus buffer control",about the same fluorescence increase as the control
same,FLUORESCENCE INCREASE (ng AMC/min),"Klebsiella pneumoniae; K. pneumoniae strain 6N3696N1, 3×10^8 cfu/ml, phosphate buffer pH 8.4 with toluene, ex 365 nm, em 440 nm",0.5 ng AMC/min
